Assay results reported in PubChem BioAssay AID2060893 (Molecular Pharmacology Branch, DTP, NCI, 2025).
pIC50: −log10 of the molar value.

Test system: K86415-001-R-J1-PDC complex spheroids, viability
Assay: Anticancer human tumor K86415-001-R-J1-PDC patient-derived lung adenocarcinoma cell line growth inhibition [RAS]
Conditions: for pIC50: curve of first compound; for viability, T/C: stronger effect = lower value
Source text: RAS pathway inhibitors in Combinations in Complex Spheroids
A high-throughput screen of multi-cell type tumor spheroids was designed to identify active combinations of RAS pathway inhibitors and targeted small molecules. Complex spheroids include a stromal component modeled by human endothelial cells (HUVEC) and fibroblasts modeled by human mesenchymal stem cells (MSCs). The concentration ranges selected for each drug and investigational agent were based upon clinically achievable concentrations if the clinical Cmax of the agent was known.
Compounds. The drugs and investigational agents: abemaciclib (NSC768073), cobimetinib (NSC768068), divarasib (GDC6063, NSC841802), docetaxel (NSC628503), GDC-1971 (RLY-1971, NSC841576), gemcitabine (NSC613327), inavolisib (NSC800729), ipatasertib (NSC767898), KB-0742 (NSC834161), MRTX-1133 (NSC836407), osimertinib (NSC779217), RMC-4630 (NSC839698), RMC-6236 (NSC851965), RMC-6291 (NSC852671), Ro-3306 (NSC812927), sapanisertib (NSC764658), SN-38 (NSC673596), staurosporine (NSC755774), SY5609 (NSC837396), and tovorafenib (DAY101, NSC766906), were obtained from the National Cancer Institute (NCI) Developmental Therapeutics Program Chemical Repository. The FDA-approved anticancer drug set is available from the NCI Developmental Therapeutics Program. […] The stock solutions were prepared in dimethyl sulfoxide (DMSO, Sigma-Aldrich, St. Louis, MO, cat. D2650) at 800-fold the tested concentration and stored at -70 degrees C prior to their use. All drugs and investigational agents were tested over a range starting from a high concentration at or near the clinical Cmax and decreasing in half-log increments. If the clinical Cmax for an agent had not been determined, the highest concentration tested was 10 microM.
Cell Culture. All cells were maintained in an incubator at 37 degrees C and 5% CO2 with 95% humidity. The PDC lines were cultured according to standard operating procedures established by the NCI PDMR. All PDCs were thawed and cultured in Matrigel-coated flasks prepared with a working solution of 1X Ham's F-12 nutrient mix, without supplementation (Invitrogen, Waltham, MA, cat. 11765054), 100 U/mL penicillin-streptomycin (Invitrogen, cat. 15140122), and 2.5% Matrigel (Corning Inc., Corning, NY, cat. 354248) for the first three passages. The 362531-283-R-J2-PDC and 782815-120-R-J1-PDC lines were cultured in 6C/Colon 1B media, which includes advanced DMEM/F-12 (Thermo Fisher Scientific, cat. 12634028), 10 mM HEPES (Thermo Fisher Scientific, cat. 15630080), 1X GlutaMAX supplement (Thermo Fisher Scientific, cat. 35050061), 0.1 mg/mL primocin (InvivoGen, San Diego, CA, cat. ant-pm-2), 10% defined fetal bovine serum, heat inactivated (HyClone Laboratories Inc., Logan, UT, cat. SH30070.03HI), 50% L-WRN conditioned media (ATCC, cat. CRL-3276), 1.25 mM N-Acetyl-L-cysteine (Sigma-Aldrich, cat. A9165), 10 mM nicotinamide (Sigma-Aldrich, cat. N0636), 1X B-27 supplement (Thermo Fisher Scientific, cat. 17504044), 1X N-2 supplement (Thermo Fisher Scientific, cat. 17502048), 50 ng/mL human EGF (Thermo Fisher Scientific, cat. PHG0311), and 10 microM Y-27632 dihydrochloride (Tocris Bioscience, cat. 1254). The K12877-001-R-J1-PDC line was cultured in 6I media, which includes all 6C/Colon 1B media plus 10 ng/mL human FGF-10 (PeproTech, cat. 100-26), 1 ng/mL human FGF-2 (PeproTech, cat. 100-18B), 1 µM prostaglandin E2 (Tocris Bioscience, cat. 2296), […] hydrocortisone (Sigma-Aldrich, cat. H4001), and […] bovine insulin (Sigma-Aldrich, cat. I6634). The K86415-001-R-J1-PDC line was cultured in 6D media, which includes all 6C/Colon 1B media components minus the L-WRN conditioned media. The 485176-168-R4-J1-PDC was cultured in PANC media, which includes all 6C/Colon 1B media plus 100 ng/mL human FGF-10 (PeproTech, cat. 100-26), 500 nM SB-431542 (Selleckchem, cat. S1067), and 10 nM gastrin (Tocris Bioscience, cat. 3006). […]
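Note: spheroids exposed to agents for seven days before readout.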

For `CC1(C)CCC(Nc2ncc(C(F)(F)F)c(-c3c[nH]c4c(P(C)(C)=O)c(C#N)ccc34)n2)CN1` (centres undefined) + CCn1c(-c2cc(N3CCN(C)CC3)cnc2C(C)OC)c2c3cc(ccc31)-c1csc(n1)CC(NC(=O)C1CC1C)C(=O)N1CCCC(N1)C(=O)OCC(C)(C)C2, the pIC50 (second compound 0.000949 µM) was 8.92, the pIC50 (second compound 0.003 µM) was > 9.02 and the pIC50 (second compound 0.00949 µM) was > 9.02. For the same compound, the pIC50 (second compound 0.03 µM) was > 9.02, the pIC50 (second compound 0.0949 µM) was > 9.02 and the pIC50 (second compound 0.3 µM) was > 9.02. The viability, T/C (second compound 0.000949 µM, first compound 0.000949 µM) was 57.1%, the viability, T/C (second compound 0.000949 µM, first compound 0.003 µM) was 45.9% and the viability, T/C (second compound 0.000949 µM, first compound 0.00949 µM) was 37.9%. For the same compound, the viability, T/C (second compound 0.000949 µM, first compound 0.03 µM) was 39.5%, the viability, T/C (second compound 0.000949 µM, first compound 0.0949 µM) was 42.2% and the viability, T/C (second compound 0.000949 µM, first compound 0.3 µM) was 39.5%. For the same compound, the viability, T/C (second compound 0.003 µM, first compound 0.000949 µM) was 24.9%, the viability, T/C (second compound 0.003 µM, first compound 0.003 µM) was 18.3% and the viability, T/C (second compound 0.003 µM, first compound 0.00949 µM) was 20.9%. It also gave a viability, T/C (second compound 0.003 µM, first compound 0.03 µM) of 20.8%, a viability, T/C (second compound 0.003 µM, first compound 0.0949 µM) of 24.6% and a viability, T/C (second compound 0.003 µM, first compound 0.3 µM) of 23.6%. For the same compound, the viability, T/C (second compound 0.00949 µM, first compound 0.000949 µM) was 10.8%, the viability, T/C (second compound 0.00949 µM, first compound 0.003 µM) was 10.4% and the viability, T/C (second compound 0.00949 µM, first compound 0.00949 µM) was 11.1%. For the same compound, the viability, T/C (second compound 0.00949 µM, first compound 0.03 µM) was 13.3%, the viability, T/C (second compound 0.00949 µM, first compound 0.0949 µM) was 12.4% and the viability, T/C (second compound 0.00949 µM, first compound 0.3 µM) was 14.3%. For the same compound, the viability, T/C (second compound 0.03 µM, first compound 0.000949 µM) was 6.32%, the viability, T/C (second compound 0.03 µM, first compound 0.003 µM) was 7.15% and the viability, T/C (second compound 0.03 µM, first compound 0.00949 µM) was 6.95%. It also gave a viability, T/C (second compound 0.03 µM, first compound 0.03 µM) of 7.05%, a viability, T/C (second compound 0.03 µM, first compound 0.0949 µM) of 6.99% and a viability, T/C (second compound 0.03 µM, first compound 0.3 µM) of 8.91%. The viability, T/C (second compound 0.0949 µM, first compound 0.000949 µM) was 5.16%, the viability, T/C (second compound 0.0949 µM, first compound 0.003 µM) was 5.23% and the viability, T/C (second compound 0.0949 µM, first compound 0.00949 µM) was 6.96%. For the same compound, the viability, T/C (second compound 0.0949 µM, first compound 0.03 µM) was 5.02%, the viability, T/C (second compound 0.0949 µM, first compound 0.0949 µM) was 6.21% and the viability, T/C (second compound 0.0949 µM, first compound 0.3 µM) was 7.98%. It also gave a viability, T/C (second compound 0.3 µM, first compound 0.000949 µM) of 3.6%, a viability, T/C (second compound 0.3 µM, first compound 0.003 µM) of 4.59% and a viability, T/C (second compound 0.3 µM, first compound 0.00949 µM) of 5.58%. For the same compound, the viability, T/C (second compound 0.3 µM, first compound 0.03 µM) was 6.23%, the viability, T/C (second compound 0.3 µM, first compound 0.0949 µM) was 5.28% and the viability, T/C (second compound 0.3 µM, first compound 0.3 µM) was 6.87%.
For `Cc1nc(N2CCC3(CC2)COC(C)C3N)c(CO)nc1Sc1ccnc(N)c1Cl` (centres undefined) + CCn1c(-c2cc(N3CCN(C)CC3)cnc2C(C)OC)c2c3cc(ccc31)-c1csc(n1)CC(NC(=O)C1CC1C)C(=O)N1CCCC(N1)C(=O)OCC(C)(C)C2, the pIC50 (second compound 0.000949 µM) was > 7.50, the pIC50 (second compound 0.003 µM) was > 7.50 and the pIC50 (second compound 0.00949 µM) was > 7.50. For the same compound, the pIC50 (second compound 0.03 µM) was > 7.50, the pIC50 (second compound 0.0949 µM) was > 7.50 and the pIC50 (second compound 0.3 µM) was > 7.50. The viability, T/C (second compound 0.000949 µM, first compound 0.0316 µM) was 35.8%, the viability, T/C (second compound 0.000949 µM, first compound 0.1 µM) was 20.5% and the viability, T/C (second compound 0.000949 µM, first compound 0.316 µM) was 9.55%. The viability, T/C (second compound 0.000949 µM, first compound 1 µM) was 10.9%, the viability, T/C (second compound 0.000949 µM, first compound 3.16 µM) was 7.52% and the viability, T/C (second compound 0.000949 µM, first compound 10 µM) was 7.71%. It also gave a viability, T/C (second compound 0.003 µM, first compound 0.0316 µM) of 15.5%, a viability, T/C (second compound 0.003 µM, first compound 0.1 µM) of 11.7% and a viability, T/C (second compound 0.003 µM, first compound 0.316 µM) of 7.5%. For the same compound, the viability, T/C (second compound 0.003 µM, first compound 1 µM) was 6.79%, the viability, T/C (second compound 0.003 µM, first compound 3.16 µM) was 4.71% and the viability, T/C (second compound 0.003 µM, first compound 10 µM) was 4.41%. For the same compound, the viability, T/C (second compound 0.00949 µM, first compound 0.0316 µM) was 10.5%, the viability, T/C (second compound 0.00949 µM, first compound 0.1 µM) was 6.46% and the viability, T/C (second compound 0.00949 µM, first compound 0.316 µM) was 5.74%. For the same compound, the viability, T/C (second compound 0.00949 µM, first compound 1 µM) was 4.02%, the viability, T/C (second compound 0.00949 µM, first compound 3.16 µM) was 3.99% and the viability, T/C (second compound 0.00949 µM, first compound 10 µM) was 4.11%. The viability, T/C (second compound 0.03 µM, first compound 0.0316 µM) was 5.58%, the viability, T/C (second compound 0.03 µM, first compound 0.1 µM) was 3.68% and the viability, T/C (second compound 0.03 µM, first compound 0.316 µM) was 4.39%. It also gave a viability, T/C (second compound 0.03 µM, first compound 1 µM) of 3.48%, a viability, T/C (second compound 0.03 µM, first compound 3.16 µM) of 3.37% and a viability, T/C (second compound 0.03 µM, first compound 10 µM) of 3.97%. The viability, T/C (second compound 0.0949 µM, first compound 0.0316 µM) was 3.82%, the viability, T/C (second compound 0.0949 µM, first compound 0.1 µM) was 3.07% and the viability, T/C (second compound 0.0949 µM, first compound 0.316 µM) was 3.2%. For the same compound, the viability, T/C (second compound 0.0949 µM, first compound 1 µM) was 3.97%, the viability, T/C (second compound 0.0949 µM, first compound 3.16 µM) was 3.81% and the viability, T/C (second compound 0.0949 µM, first compound 10 µM) was 3.34%. It also gave a viability, T/C (second compound 0.3 µM, first compound 0.0316 µM) of 2.66%, a viability, T/C (second compound 0.3 µM, first compound 0.1 µM) of 3.52% and a viability, T/C (second compound 0.3 µM, first compound 0.316 µM) of 3.88%. The viability, T/C (second compound 0.3 µM, first compound 1 µM) was 3.34%, the viability, T/C (second compound 0.3 µM, first compound 3.16 µM) was 4.46% and the viability, T/C (second compound 0.3 µM, first compound 10 µM) was 2.74%.
